Experimental data published in ChEMBL document CHEMBL1158320, “Antiandrogenic natural Diels--Alder-type adducts from Brosimum rubescens” (J Nat Prod, 1997).
The source made the active and inactive calls. The rule behind the calls is not given here.

Tests used:
Conditions in all cases: Prostate gland
[1] = molecular target: T1, Androgen receptor (Rattus norvegicus) (UniProt P15207); test: Displacement of [3H]dihydrotestosterone from androgen receptor in Wistar rat ventral prostate at 50 ug/mL by liquid scintillation counting; format: tissue-based
T1 sequence (whole entry): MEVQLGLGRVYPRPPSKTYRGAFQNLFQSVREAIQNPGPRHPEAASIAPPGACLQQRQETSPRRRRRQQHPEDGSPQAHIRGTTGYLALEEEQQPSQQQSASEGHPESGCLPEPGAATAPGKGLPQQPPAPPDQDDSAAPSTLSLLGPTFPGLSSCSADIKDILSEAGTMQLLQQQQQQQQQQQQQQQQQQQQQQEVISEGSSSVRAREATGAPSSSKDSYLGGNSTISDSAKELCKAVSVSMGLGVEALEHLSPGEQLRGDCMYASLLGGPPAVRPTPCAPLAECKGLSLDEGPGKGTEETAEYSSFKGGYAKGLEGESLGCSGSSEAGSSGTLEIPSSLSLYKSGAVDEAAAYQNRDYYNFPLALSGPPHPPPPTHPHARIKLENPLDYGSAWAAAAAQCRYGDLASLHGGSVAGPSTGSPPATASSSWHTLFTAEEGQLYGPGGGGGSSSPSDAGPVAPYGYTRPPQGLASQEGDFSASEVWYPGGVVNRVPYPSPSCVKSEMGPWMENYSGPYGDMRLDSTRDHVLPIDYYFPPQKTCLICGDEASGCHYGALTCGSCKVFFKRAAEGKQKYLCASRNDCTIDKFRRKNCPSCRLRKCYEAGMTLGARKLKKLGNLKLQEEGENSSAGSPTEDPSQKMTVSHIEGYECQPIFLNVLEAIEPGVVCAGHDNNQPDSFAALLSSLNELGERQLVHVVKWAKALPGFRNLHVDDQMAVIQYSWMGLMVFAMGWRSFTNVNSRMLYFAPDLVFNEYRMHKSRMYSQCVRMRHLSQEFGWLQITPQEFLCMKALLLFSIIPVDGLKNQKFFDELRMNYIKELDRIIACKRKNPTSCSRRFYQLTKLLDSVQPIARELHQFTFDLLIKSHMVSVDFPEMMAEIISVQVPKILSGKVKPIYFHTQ

[2] = molecular target: T1, Androgen receptor (Rattus norvegicus); test: Displacement of [3H]dihydrotestosterone from androgen receptor in Wistar rat ventral prostate at 100 ug/mL by liquid scintillation counting; format: tissue-based
Rattus norvegicus [3] = organism: Rattus norvegicus; test: Inhibition of 5alpha reductase in Wistar rat ventral prostate at 200 ug/mL by radiochromatography; format: tissue-based
Rattus norvegicus [4] = organism: Rattus norvegicus; test: Inhibition of 5alpha reductase in Wistar rat ventral prostate at 50 ug/mL by radiochromatography; format: tissue-based
Rattus norvegicus [5] = organism: Rattus norvegicus; test: Inhibition of 5alpha reductase in Wistar rat ventral prostate at 100 ug/mL by radiochromatography; format: tissue-based
[6] = molecular target: T1, Androgen receptor (Rattus norvegicus); test: Displacement of [3H]dihydrotestosterone from androgen receptor in Wistar rat ventral prostate at 200 ug/mL by liquid scintillation counting

In the case of COc1cc(O)ccc1[C@H]1Oc2cc3oc(=O)ccc3cc2[C@@H]2C=C(C)C[C@@H](c3ccc(O)cc3OC)[C@H]12, the inhibition [1] is reported as 60.3%, the inhibition [2] is reported as 70.9% and the inhibition (Rattus norvegicus [3]) is reported as 72.3%. It also gave an inhibition (Rattus norvegicus [4]) of 8.6%, an inhibition (Rattus norvegicus [5]) of 49.9% and an inhibition [6] of 62%.

Molecule COc1cc(O)ccc1[C@@H]1CC(C)=C[C@H]2c3cc4ccc(=O)oc4cc3O[C@H](c3ccc(O)c(O)c3)[C@H]21 has an inhibition [2] of -8.6%, an inhibition (Rattus norvegicus [3]) of 19.8% and an inhibition (Rattus norvegicus [4]) of 0.2%. The inhibition (Rattus norvegicus [5]) was 8.4%.

Work on COc1cc(O)ccc1[C@H]1Oc2cc3oc(=O)ccc3cc2[C@@H]2C=C(C)C[C@@H](c3ccc(O)cc3)[C@H]12 yielded an inhibition [1] of 62.5%, an inhibition [2] of 73.3% and an inhibition (Rattus norvegicus [3]) of 59.2%. For the same molecule, the inhibition (Rattus norvegicus [4]) was 5.4%, the inhibition (Rattus norvegicus [5]) was 28.8% and the inhibition [6] was 78.6%.

CC[C@H]1C[C@H]2[C@@H]3CCC4=CC(=O)CC[C@@H]4[C@H]3CC[C@]2(C)[C@H]1O was tested, and the Activity (Rattus norvegicus [4]) was “Active”.

COc1cc(O)ccc1[C@@H]1CC(C)=C[C@H]2c3cc4ccc(=O)oc4cc3O[C@H](c3ccc(O)cc3)[C@H]21 gave an inhibition [1] of 56.5%, an inhibition [2] of 57.5% and an inhibition (Rattus norvegicus [3]) of 69.2%. For the same molecule, the inhibition (Rattus norvegicus [4]) was 3.4%, the inhibition (Rattus norvegicus [5]) was 44.1% and the inhibition [6] was 61.5%.

With COc1cc(O)ccc1[C@H]1Oc2cc3oc(=O)ccc3cc2[C@@H]2C=C(C)C[C@@H](c3ccc(O)c(O)c3)[C@H]12 the inhibition (Rattus norvegicus [3]) was 5.2%, the inhibition (Rattus norvegicus [4]) was 0.3% and the inhibition (Rattus norvegicus [5]) was 4.8%.
